From patent publication US12673022B2, “Drug delivery system using solution” (Kyoto University, priority 2018, dated 2026)

Assays:
[1] = tested on: human DMD exon 45 knock-in/mouse Dmd exon 44 knock-out mouse tibialis anterior muscle; experiment: Exon skipping efficiency in skeletal muscle (human DMD exon 45); assay type: in vivo; conditions: Example 7; administration solution 3: 25 mM or 250 mM 6-phospho-D-gluconic acid or N-carbamyl-L-aspartic acid, 158 mM sodium chloride, hEx45 #1 and #23 gRNA/Cas9; 50 μL once, day 7; Dunnett's test; FIG. 11
Method: Cas9 protein (120 μg), hDMD Ex45 #1 gRNA (15 μg), hDMD Ex45 #23 gRNA (15 μg) and 10×PBS (25 μL) were mixed and a 500 mM compound stock solution was added, and then, 500 mM compound stock solution was added to the mixture so as to obtain final concentrations: […], […], 300 ng/μL hDMD Ex45 #23 gRNA, 158 mM sodium chloride, 25 mM or 250 mM compound and diluted with UltraPure DNase/RNase-Free Distilled Water up to a liquid volume of 250 μL and incubated at normal temperature for 15 minutes. The Cas9 protein herein was subjected to buffer replacement with 250 mM sodium chloride by use of Amicon® Ultra 2 mL Centrifugal Filters and then put in use […]
To the tibialis anterior muscle of each of 4 weeks-old male human DMD exon 45 knock-in/mouse Dmd exon 44 knock-out mice, administration solution 3 (50 μL) was administered once. […] Subsequently, a product with skipping was quantitatively measured by use of FastStart Universal Probe Master (Roche), the primers represented by SEQ ID Nos. 14 and 15 and the probe of sequence 16. The product without skipping was quantitatively measured by use of FastStart Universal Probe Master (Roche), the primers represented by SEQ ID Nos. 17 and 18 and the probe of sequence 19. Each of the PCR products was measured by use of ViiA7™ real time PCR system. […]

[2] = tested on: EGFP reporter cells (C2C12 cells); experiment: Number of HOECHST cells detected (cell viability) in the EGFP-SSA assay; conditions: Example 1; compound 250.0 mM vs 250 mM GABA positive control on the same plate; formula (2)
Method: To each of the solutions, a complex of gRNA and Cas9 protein was further dissolved. Mouse myoblasts (C2C12 cells) were contacted with each of the solutions in vitro, and target gene cleavage activity and cell viability were evaluated.

`NC(=O)N[C@@H](CC(=O)O)C(=O)O` [N-Carbamyl-L-aspartic acid] was tested, and the “Exon skipping activity (skipping efficiency %) compared to 250 mM GABA” value [1] was “statistically significant results compared to 250 mM GABA” and the “Relative ratio to GABA: Number of HOECHST cells” value [2] was 1.19.
